According to PMC8854719, “Phase 1A/1B dose-escalation and -expansion study to evaluate the safety, pharmacokinetics, food effects and antitumor activity of pamiparib in advanced solid tumours” (British Journal of Cancer, 2021):
Marks after values point to notes of the source that are not given here.

Test: Safety and tolerability: adverse events, dose-limiting toxicities, MTD, RP2D (Phase 1A/1B)
Type: in vivo
Method: This was an open-label, Phase 1, dose-escalation/dose-expansion study, conducted across six study centres in Australia. The dose-escalation phase evaluated twice-daily (BID) and once-daily (QD) dosing, and the dose-expansion phase evaluated the BID RP2D from the dose-escalation phase and food effects (Fig. 1). The food-effects cohort comprised two sequences: fast followed by fed (sequence 1) and fed followed by fast (sequence 2). […] The decision to proceed to the next dose cohort was determined by the Safety Monitoring Committee and followed a modified 3 + 3 escalation scheme. […] When ≥2 DLTs occurred in the first 23 days of a dose level, the next lower dose level was declared the MTD. Safety was monitored and DLTs were assessed in all dose cohorts. […] The food-effects cohort investigated the effects of food on the PK of pamiparib in patients with advanced solid tumours.
The QD dosing regimen was added as an amendment to the protocol with the purpose of exploring the feasibility of a more convenient regimen.
Safety and tolerability were assessed throughout the study by monitoring adverse events (AEs), serious AEs, clinical laboratory measurements and physical examinations. Adverse events were categorised according to their severity (National Cancer Institute Common Terminology Criteria for Adverse Events v4.03) and relationship to the study treatment.

C[C@]12CCCN1CC1=NNC(=O)c3cc(F)cc4[nH]c2c1c34 [pamiparib]
0 (0.0) n (%): Ascites, AE of any grade (20 mg BID (n = 3)) | Back pain, AE of any grade (20 mg BID (n = 3)) | Constipation, AE of any grade (20 mg BID (n = 3)) | Cough, AE of any grade (20 mg BID (n = 3)) | Decreased appetite, AE of any grade (20 mg BID (n = 3)) | Dose-limiting toxicity (20 mg BID (n = 3)) | Hypoalbuminemia, AE of any grade (20 mg BID (n = 3)) | Hypophosphatemia, AE of any grade (20 mg BID (n = 3)) | Increased AST, AE of any grade (20 mg BID (n = 3)) | Muscle spasms, AE of any grade (20 mg BID (n = 3)) | Neutropenia, AE of any grade (20 mg BID (n = 3)) | Non-cardiac chest pain, AE of any grade (20 mg BID (n = 3)) | Pleural effusion, AE of any grade (20 mg BID (n = 3)) | Pyrexia, AE of any grade (20 mg BID (n = 3)) | Treatment-emergent AE: Leading to death (20 mg BID (n = 3)) | Treatment-emergent AE: Leading to treatment discontinuation (20 mg BID (n = 3)) | Treatment-related AE: Leading to death (20 mg BID (n = 3)) | Treatment-related AE: Leading to treatment discontinuation (20 mg BID (n = 3)) | Treatment-related AE: Serious (20 mg BID (n = 3)) | Upper respiratory tract infection, AE of any grade (20 mg BID (n = 3)) | Abdominal pain, AE of any grade (40 mg BID (n = 6)) | Cough, AE of any grade (40 mg BID (n = 6)) | Decreased appetite, AE of any grade (40 mg BID (n = 6)) | Dyspnoea, AE of any grade (40 mg BID (n = 6)) | Hypoalbuminemia, AE of any grade (40 mg BID (n = 6)) | Hypomagnesemia, AE of any grade (40 mg BID (n = 6)) | Muscle spasms, AE of any grade (40 mg BID (n = 6)) | Non-cardiac chest pain, AE of any grade (40 mg BID (n = 6)) | Pain in extremity, AE of any grade (40 mg BID (n = 6)) | Peripheral sensory neuropathy, AE of any grade (40 mg BID (n = 6)) | Pleural effusion, AE of any grade (40 mg BID (n = 6)) | Pyrexia, AE of any grade (40 mg BID (n = 6))
1 (16.7) n (%): Ascites, AE of any grade (40 mg BID (n = 6)) | Constipation, AE of any grade (40 mg BID (n = 6)) | Hypophosphatemia, AE of any grade (40 mg BID (n = 6)) | Increased AST, AE of any grade (40 mg BID (n = 6))
5 (83.3) n (%): Nausea, AE of any grade (40 mg BID (n = 6))
1 (16.7)^a n (%): Dose-limiting toxicity (40 mg BID (n = 6))
3 (100.0) n (%): Fatigue, AE of any grade (20 mg BID (n = 3)) | Treatment-emergent AE (20 mg BID (n = 3)) | Treatment-emergent AE: Leading to dose interruption (20 mg BID (n = 3)) | Treatment-emergent AE: Leading to dose modification (20 mg BID (n = 3)) | Treatment-related AE (20 mg BID (n = 3))
2 (33.3) n (%): Anaemia, AE of any grade (40 mg BID (n = 6)) | Back pain, AE of any grade (40 mg BID (n = 6)) | Diarrhoea, AE of any grade (40 mg BID (n = 6)) | Fatigue, AE of any grade (40 mg BID (n = 6)) | Headache, AE of any grade (40 mg BID (n = 6)) | Neutropenia, AE of any grade (40 mg BID (n = 6))
2 (66.7) n (%): Diarrhoea, AE of any grade (20 mg BID (n = 3)) | Nausea, AE of any grade (20 mg BID (n = 3)) | Vomiting, AE of any grade (20 mg BID (n = 3))
6 (100.0) n (%): Treatment-emergent AE (40 mg BID (n = 6))
1 (33.3) n (%): Dyspnoea, AE of any grade (20 mg BID (n = 3)) | Headache, AE of any grade (20 mg BID (n = 3)) | Hypomagnesemia, AE of any grade (20 mg BID (n = 3)) | Pain in extremity, AE of any grade (20 mg BID (n = 3)) | Peripheral sensory neuropathy, AE of any grade (20 mg BID (n = 3)) | Treatment-emergent AE: Grade 3 or higher (20 mg BID (n = 3)) | Treatment-emergent AE: Leading to dose reduction (20 mg BID (n = 3)) | Treatment-emergent AE: Serious (20 mg BID (n = 3)) | Treatment-related AE: Grade 3 or higher (20 mg BID (n = 3)) | Treatment-related AE: Leading to dose interruption (20 mg BID (n = 3)) | Treatment-related AE: Leading to dose modification (20 mg BID (n = 3)) | Treatment-related AE: Leading to dose reduction (20 mg BID (n = 3)) | Urinary tract infection, AE of any grade (20 mg BID (n = 3))
